The values that follow come from ChEMBL document CHEMBL3853341, “Nuclear magnetic resonance studies reveal stabilization of parallel G-quadruplex DNA [d(T2G4T)]4 upon binding to protoberberine alkaloid coralyne” (Bioorg Med Chem Lett, 2016).

Each structure is given as a SMILES string. The source made the active and inactive calls. No cut-off for these calls is given here.

The nature of assay [1]: Binding affinity to [d(T2AG3T)]4 G-quadruplex DNA (unknown origin) containing human telomeric repeat assessed as increase in melting temperature by NMR spectroscopic analysis.
Assay [2] can be described thus: Binding affinity to deoxy(T2G4T)]4 G-quadruplex DNA (unknown origin) assessed as formation of negative induced CD band at 25 uM by […].
A short description of assay [3]: Binding affinity to deoxy(T2G4T)]4 G-quadruplex DNA (unknown origin) assessed as G3NH/G6NH signal by measuring melting temperature by 1H NMR spectroscopy.
Assay [4] in a line: Binding affinity to [d(T2G4T)]4 G-quadruplex DNA (unknown origin) assessed as change in intensity of positive band at 264 nanometer by circular dichroism method.
Assay [5] can be described thus: Binding affinity to [d(T2G4T)]4 G-quadruplex DNA (unknown origin) assessed as change in intensity of negative band at 242 nanometer by circular dichroism method.
Assay [6] can be described thus: Binding affinity to [d(T2G4T)]4 G-quadruplex DNA (unknown origin) assessed as formation of 3'-flanking guanine at ligand:DNA molar ratio of 2 by 2D 1H-1H NOESY NMR spectroscopy.
Assay [7] can be described thus: Binding affinity to [d(T2G4T)]4 G-quadruplex DNA (unknown origin) assessed as diffusion coefficient of H1/H16 proton signal at ligand:DNA molar ratio of 2 by NMR DOSY method (reference value: 5.08 10^-10m2/sec).
Assay [8] can be described thus: Binding affinity to [d(T2G4T)]4 G-quadruplex DNA (unknown origin) assessed as diffusion coefficient of G3H8 proton signal at ligand:DNA molar ratio of 2 by NMR DOSY method.
Assay [9] can be described thus: Binding affinity to [d(T2G4T)]4 G-quadruplex DNA (unknown origin) assessed as broadening of G3NH signal by measuring upfield shift at ligand:DNA molar ratio of 2 by 1D 1H NMR method.
The nature of assay [10]: Binding affinity to [d(T2G4T)]4 G-quadruplex DNA (unknown origin) assessed as broadening of G6NH signal by measuring upfield shift at ligand:DNA molar ratio of 2 by 1D 1H NMR method.
Assay [11] in a line: Binding affinity to [d(T2G4T)]4 G-quadruplex DNA (unknown origin) assessed as broadening of G4NH signal by measuring upfield shift at ligand:DNA molar ratio of 2 by 1D 1H NMR method.
The nature of assay [12]: Binding affinity to [d(T2G4T)]4 G-quadruplex DNA (unknown origin) assessed as broadening of G5NH signal by measuring upfield shift at ligand:DNA molar ratio of 2 by 1D 1H NMR method.
Assay [13] is described as follows: Binding affinity to [d(T2G4T)]4 G-quadruplex DNA (unknown origin) assessed as broadening of T2CH3 signal by measuring downfield shift at ligand:DNA molar ratio of 2 by 1D 1H NMR method.
Assay [14] is described as follows: Binding affinity to [d(T2G4T)]4 G-quadruplex DNA (unknown origin) assessed as broadening of T7CH3 signal by measuring downfield shift at ligand:DNA molar ratio of 2 by 1D 1H NMR method.
Assay [15] in a line: Binding affinity to [d(T2G4T)]4 G-quadruplex DNA (unknown origin) assessed as broadening of T7H6 signal by measuring downfield shift at ligand:DNA molar ratio of 2 by 1D 1H NMR method.
A short description of assay [16]: Binding affinity to [d(T2G4T)]4 G-quadruplex DNA (unknown origin) assessed as upfield shift in compound 1OCH3 signal at ligand:DNA molar ratio of 2 by 1D 1H NMR method.
A short description of assay [17]: Binding affinity to [d(T2G4T)]4 G-quadruplex DNA (unknown origin) assessed as upfield shift in compound 5OCH3 signal at ligand:DNA molar ratio of 2 by 1D 1H NMR method.
The nature of assay [18]: Binding affinity to [d(T2G4T)]4 G-quadruplex DNA (unknown origin) assessed as upfield shift in compound 15OCH3 signal at ligand:DNA molar ratio of 2 by 1D 1H NMR method.
Assay [19] is described as follows: Binding affinity to [d(T2G4T)]4 G-quadruplex DNA (unknown origin) assessed as upfield shift in compound 16OCH3 signal at ligand:DNA molar ratio of 2 by 1D 1H NMR method.
The nature of assay [20]: Binding affinity to [d(T2G4T)]4 G-quadruplex DNA (unknown origin) assessed as downfield shift in T2pG3 signal at ligand:DNA molar ratio of 0.25:1 to 2:1 by 1D 31P NMR method.
Assay [21] in a line: Binding affinity to [d(T2G4T)]4 G-quadruplex DNA (unknown origin) assessed as downfield shift in G6pT7 signal at ligand:DNA molar ratio of 0.25:1 to 2:1 by 1D 31P NMR method.
Assay [22] can be described thus: Binding affinity to [d(T2G4T)]4 G-quadruplex DNA (unknown origin) assessed as upfield shift in G4pG5 signal at ligand:DNA molar ratio of 0.25:1 to 2:1 by 1D 31P NMR method.
Assay [23] in a line: Binding affinity to [d(T2G4T)]4 G-quadruplex DNA (unknown origin) assessed as upfield shift in G5pG6 signal at ligand:DNA molar ratio of 0.25:1 to 2:1 by 1D 31P NMR method.

As to `O=c1c(O)c(-c2ccc(O)c(O)c2)oc2cc(O)cc(O)c12`, the ΔTm in [1] was determined as 20 °C.
Consider `Cc1cc2c3c([n+](C)c4ccc(F)cc4c3c1)-c1cc(F)ccc1N2C`, for which the shift in melting temperature (ΔTm) in assay [1] is 20 °C.
`COc1cc2cc3c4cc(OC)c(OC)cc4cc[n+]3c(C)c2cc1OC`: the result in [2], in assay [4], in [5] and in assay [6] was Active. Also, in assay [3], the ΔTm is > 20 °C. The D in assay [7] turned out to be 3.31 ×10⁻¹⁰ m2/s; in [8], 3.26 ×10⁻¹⁰ m2/s. In addition, the Activity in assay [9] was found to be 0.54 ppm; in [10], 0.8 ppm; in assay [11] it was 0.37 ppm; in assay [12], 0.38 ppm; in assay [13], 0.17 ppm; in [14], 0.22 ppm. In addition, the Activity stood at 0.33 ppm in assay [15]; 0.49 ppm in [16]; 0.72 ppm in assay [17]; 0.46 ppm in [18]; 0.61 ppm in [19]; 0.28 ppm in assay [20]. The Activity in assay [21] worked out at 0.27 ppm; in assay [22] it was 0.12 ppm; in [23], 0.12 ppm.
